Measured values reported in PubChem BioAssay (NCI).
Values joined by “and” are separate entries in the source; they are usually repeats but may differ in a detail not shown here. Equal values may be shown once.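 These data come from cells grown in 96-well plates and exposed to compound for 48 hours at five concentrations. GI50 marks 50% less growth. The concentration for full growth arrest is given as TGI.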

Tests used:
Assay in all cases: inhibition of tumour cell growth, NCI panel, 48 h
EKVX NSCLC = test system: EKVX NSCLC
KM12 colon = test system: KM12 colon
SNB-19 CNS = test system: SNB-19 CNS
SK-MEL-2 melanoma = test system: SK-MEL-2 melanoma
NCI-H460 lung = test system: NCI-H460 lung
OVCAR-4 ovarian = test system: OVCAR-4 ovarian
RPMI-8226 leukemia = test system: RPMI-8226 leukemia
NCI-H23 lung = test system: NCI-H23 lung
RXF 393 renal = test system: RXF 393 renal
HCC-2998 colon = test system: HCC-2998 colon

| Compound | GI50 (EKVX NSCLC) | TGI (EKVX NSCLC) | GI50 (KM12 colon) | TGI (KM12 colon) | GI50 (SNB-19 CNS) | TGI (SNB-19 CNS) | GI50 (SK-MEL-2 melanoma) | TGI (SK-MEL-2 melanoma) | GI50 (NCI-H460 lung) [µM] | TGI (NCI-H460 lung) [µM] | GI50 (OVCAR-4 ovarian) | TGI (OVCAR-4 ovarian) | GI50 (RPMI-8226 leukemia) | TGI (RPMI-8226 leukemia) | GI50 (NCI-H23 lung) [µM] | TGI (NCI-H23 lung) [µM] | GI50 (RXF 393 renal) | TGI (RXF 393 renal) | GI50 (HCC-2998 colon) | TGI (HCC-2998 colon) |
| --- | --- | --- | --- | --- | --- | --- | --- | --- | --- | --- | --- | --- | --- | --- | --- | --- | --- | --- | --- | --- |
| C[C@]12CC[C@H]3[C@@H](CCC4=CC(=O)CC[C@@H]43)[C@@H]1CC[C@@H]2OC(=O)CCc1ccccc1 | 2.23 µM | 28.7 µM | 19.8 µM | 43 µM | 18.4 µM | 37.5 µM | 41 µM | > 100 µM | 17.1 | 35.6 | 18.8 µM | 40.4 µM | 14.6 µM | 47 µM | 19.9 | 44.1 | 19.6 µM | 43.5 µM | 29.7 µM | > 78.2 µM |
| CC1=C(CCC(C)N(C)Cc2ccc(OCCCN3CCCC3)cc2)C(C)(C)CCC1 (centres undefined) | 9.07 µM | 23.2 µM | 4.6 µM | 17.7 µM | 3.61 µM | 12 µM | 2.96 µM | 7.49 µM | 3.02 | 8.81 | 7.76 µM | 21.4 µM | 2.9 µM | 8.65 µM | 10.4 | 24.9 | 2.59 µM | 10.2 µM | 1.5 µM | 4 µM |
| O=C(/C(=C/c1ccccc1)CN1CCCCC1)c1ccccc1 | 2.51 µM | 9.23 µM | 2.09 µM | 6.88 µM | 3.9 µM | 15.7 µM | 1.6 µM | 4.01 µM | 2.05 | 4.91 | 2.05 µM | 9.53 µM | 0.8 µM | 5.13 µM | 1.49 | 4.3 | 0.481 µM | 1.21 µM | 1.68 µM | 3.11 µM |
| COC(=O)C(Cc1ccccc1)NC(=O)NC(=O)NC(=O)CI (centres undefined) | 11.9 µM | 25.3 µM | 15.8 µM | 32.6 µM | 17.6 µM | 36.4 µM | 16.4 µM | 30.7 µM | 22.6 | 50.1 | 4.41 µM | 24.4 µM | 2.69 µM | 7.71 µM | 6.79 | 28.2 | 7.75 µM | 20.2 µM | 17.2 µM | 33.3 µM |
| O=C(c1ccccc1)C(CN1CCOCC1)c1ccccc1 (centres undefined) | 3.32 µM | 16.9 µM | 1.8 µM | 3.73 µM | 3.76 µM | 15.6 µM | 1.67 µM | 3.39 µM | 2.51 | 7.76 | 3.88 µM | 19.3 µM | 0.793 µM | 4.74 µM | 2.79 | 12.3 | 1.8 µM | 3.36 µM | 4.36 µM | 15.6 µM |
| Cc1ccc(C(=O)Nc2ccc(CN3CCN(C)CC3)c(C(F)(F)F)c2)cc1C#Cc1cnc2cccnn12 | 0.635 µM and 1.79 µM | 2.27 µM and 5.14 µM | 0.0455 µM and 0.131 µM | 1.22 µM and 3.72 µM | 0.973 µM and 2.7 µM | 2.28 µM and 4.67 µM | 0.217 µM and 0.492 µM | 0.579 µM and 1.43 µM | 0.763 | 4.07 | 0.171 µM and 0.479 µM | 1.64 µM and 4.32 µM | 0.627 µM and 1.15 µM | 3.01 µM and 4.26 µM | 0.964 | 4.15 | 0.224 µM and 0.53 µM | 0.972 µM and 2.21 µM | 0.579 µM and 1.38 µM | 1.86 µM and 4.05 µM |
| CCCCCCCCCCCC(=O)OCCOCCOCCOCCOCCOCc1ccc(OC)cc1 | – | > 100 µM | – | > 100 µM | – | > 100 µM | – | > 100 µM | – | > 100 | – | > 100 µM | – | > 100 µM | – | > 100 | – | > 100 µM | – | > 100 µM |
| C=CC(=O)N(C)[C@H]1C[C@H]2OC(C)(C1OC)n1c3ccccc3c3c4c(c5c6ccccc6n2c5c31)C(=O)NC4 (some centres undefined) | 0.085 µM | > 50 µM | 0.0228 µM | 0.79 µM | 0.17 µM | 1.71 µM | 0.193 µM | 1.49 µM | 0.0876 | 1.01 | 0.0939 µM | > 50 µM | 0.103 µM | 1.5 µM | 0.158 | 2.08 | 0.0221 µM | 0.157 µM | 0.575 µM | 1.46 µM |
| CCN=C1C=CC(=C(c2ccc(N)cc2)c2ccc(N(CC)CC)c(C)c2)C=C1 | 0.266 µM | 11.1 µM | 0.296 µM | 1.09 µM | 0.225 µM | 1.62 µM | 0.303 µM | 0.943 µM | 0.287 | 1.18 | 0.298 µM | 1.66 µM | 0.149 µM | 0.882 µM | 0.318 | 1.3 | 0.4 µM | 1.86 µM | 0.48 µM | 1.65 µM |
| N#Cc1c(N/N=C/c2c(Cl)cccc2Cl)nc(N)nc1N1CCOCC1 | 54.1 µM | > 100 µM | 4.06 µM | 71.7 µM | 34.5 µM | > 100 µM | 8.3 µM | 81.8 µM | 5.32 | > 100 | > 100 µM | > 100 µM | 3.86 µM | 26.2 µM | 44.5 | > 100 | 16.6 µM | 94.2 µM | 3.96 µM | 12.8 µM |
| CN1CCN(Cc2ccc(NC(=O)c3cncc(C#Cc4cnc(N)c5ccncc45)c3)cc2C(F)(F)F)CC1 | 1.44 µM | > 16.8 µM | 0.027 µM | 5.52 µM | 3.23 µM | 9.62 µM | 0.3 µM | 1.07 µM | 0.374 | 5.81 | 0.283 µM | 6.32 µM | 1.09 µM | 5.77 µM | 0.9 | 6.79 | 0.516 µM | 2.28 µM | 1.78 µM | 7.89 µM |
| COC(=O)Cn1c2c(c3c(O)cccc31)C(=O)c1ccccc1-2 | > 100 µM | > 100 µM | > 100 µM | > 100 µM | > 100 µM | > 100 µM | > 100 µM | > 100 µM | > 100 | > 100 | > 100 µM | > 100 µM | > 100 µM | > 100 µM | > 100 | > 100 | > 100 µM | > 100 µM | > 100 µM | > 100 µM |
| CN(C)c1ccc(/C=C\c2cccc[n+]2C)cc1 | 0.489 µM | > 100 µM | 0.821 µM | 13.4 µM | 4.83 µM | > 100 µM | 20.4 µM | > 100 µM | 15.2 | > 100 | 4.28 µM | 62.5 µM | 4.44 µM | 45.2 µM | 4.69 | > 100 | 18.2 µM | > 100 µM | 3.68 µM | 39.2 µM |
| C=CC(=O)N1CCN(c2ccc3cccc(NC(=O)c4cnc(C)cn4)c3n2)CC1 | 12.4 µM | > 100 µM | 2.84 µM | 19 µM | 5.38 µM | > 100 µM | 3.37 µM | 27.8 µM | 2.51 | 19.7 | 2.66 µM | > 100 µM | 1.5 µM | 6.52 µM | 4.49 | 19.5 | 1.45 µM | 9.46 µM | 5.32 µM | 23.6 µM |
| O=[N+]([O-])c1cccc(-c2nc3sccn3c2-c2ccnc(NCCCNS(=O)(=O)c3cccc(F)c3)n2)c1 | 2.77 µM | 52.7 µM | 2.39 µM | 8.14 µM | 4.34 µM | 61.8 µM | 2.04 µM | 5.98 µM | 3.34 | > 100 | 1.64 µM | 7.64 µM | 0.984 µM | 4.18 µM | 1.98 | 7.34 | 8.13 µM | 41.6 µM | 6.79 µM | > 100 µM |
| Cn1cnc2nc(Cl)nc(NC(C)(C)C(C)(C)O)c21 | – | > 100 µM | – | > 100 µM | – | > 100 µM | – | > 100 µM | – | > 100 | – | > 100 µM | – | > 100 µM | – | > 100 | – | > 100 µM | – | > 100 µM |
| CC(=O)NC1=C(OS(=O)(=O)c2ccc(C)cc2)CN(C)C1=O | – | 14.2 µM | – | 14.3 µM | – | 14.9 µM | – | 9.63 µM | – | 7.77 | – | 20.9 µM | – | 5.77 µM | – | 15.3 | – | 13.3 µM | – | 11.5 µM |
| O=C(O)C/C=C/CC(=O)O | – | > 100 µM | – | > 100 µM | – | > 100 µM | – | > 100 µM | – | > 100 | – | > 100 µM | – | > 100 µM | – | > 100 | – | > 100 µM | – | > 100 µM |
| COC1CC(OS(=O)(=O)c2ccc(C)cc2)C(OC(=O)c2ccccc2)C(C)O1 (centres undefined) | > 100 µM | > 100 µM | > 100 µM | > 100 µM | > 100 µM | > 100 µM | > 100 µM | > 100 µM | > 100 | > 100 | > 100 µM | > 100 µM | – | > 100 µM | > 100 | > 100 | > 10 µM | > 100 µM | > 100 µM | > 100 µM |
| Cc1ccc(C2=NOC3=c4ccccc4=CSC3=C2c2ccc([N+](=O)[O-])cc2)cc1 | 24.4 µM | 93.6 µM | 61.1 µM | > 100 µM | 17.6 µM | 63.7 µM | 31.5 µM | > 100 µM | 16.9 | > 100 | 95.6 µM | > 100 µM | 44.4 µM | > 100 µM | 17.8 | 53.7 | 18.7 µM | 64.6 µM | 24.4 µM | > 100 µM |
